Counter-ions that a name gives are not always drawn.

T1 sequence (P00742 235-488 limits assumed): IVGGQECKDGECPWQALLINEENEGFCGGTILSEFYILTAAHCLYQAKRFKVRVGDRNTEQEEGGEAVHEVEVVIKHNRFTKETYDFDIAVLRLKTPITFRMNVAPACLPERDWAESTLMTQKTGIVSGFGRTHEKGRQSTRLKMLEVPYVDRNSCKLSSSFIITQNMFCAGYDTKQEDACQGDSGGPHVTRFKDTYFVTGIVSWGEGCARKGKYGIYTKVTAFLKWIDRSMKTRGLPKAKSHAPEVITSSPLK
T1 sequence (P00742 41-179 partner limits assumed): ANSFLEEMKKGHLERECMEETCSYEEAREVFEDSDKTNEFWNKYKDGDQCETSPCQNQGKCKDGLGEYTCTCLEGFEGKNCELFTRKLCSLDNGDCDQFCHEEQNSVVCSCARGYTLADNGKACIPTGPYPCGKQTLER

This test concerns the target T1, human Factor Xa (Homo sapiens, UniProt P00742).
T1 construct: containing human Factor Xa (final conc. Of 0.0003 U·ml−1)
Kind of test: In vitro assay for inhibition of Factor Xa (fluorogenic assay, Rhodamine 110 bis-CBZ-glycylglycyl-L-arginine amide substrate). It is filed as biochemical. The note with it: Ki = IC50/1.6; 15 min preincubation, substrate 10 μM, room temperature, pH 7.4. How it is done: In Vitro Assay for Inhibition of Factor Xa
Compounds of the present invention were tested for their Factor Xa inhibitory activity as determined in vitro by their ability to inhibit human Factor Xa in a fluorogenic assay, using Rhodamine 110, bis-CBZ-glycylglycyl-L-arginine amide as the fluorogenic substrate. Compounds were diluted from a 10 mM stock solution in dimethylsulfoxide at appropriate concentrations. Assay was performed at room temperature using buffer consisting of: 50 mM Tris-HCl, 150 mM NaCl, 5 mM CaCl2, pH 7.4. containing human Factor Xa (final conc. Of 0.0003 U·ml−1). Compound and enzyme were preincubated for 15 min prior to addition of the substrate (final conc. of 10 μM). The reaction was stopped after 3 hrs with the addition of H-D-Phe-Pro-Arg-Chloromethylketone. An LJL-Analyst fluorimeter was used to monitor fluorescence with 485 nm excitation/535 nm emission. To obtain IC50 values the data were analysed using ActivityBase® and XLfit®.
Calculation of Ki Values: Ki=IC50/(1+[Substrate]/Km)
The Ki value for the above assay can be obtained by dividing the IC50 value by 1.6.
As a reminder, the Ki is a measure of affinity in units of concentration, obtained from inhibition or displacement. Read a high Ki as lower affinity. For the compound `O=C1C(NS(=O)(=O)CCc2ccc(Cl)s2)CCN1c1ccc(-n2ccnc2CN2CCC2)cc1F` (centres unmarked) [Example 2, N-(1-{4-[2-(1-Azetidinylmethyl)-1H-imidazol-1-yl]-2-fluorophenyl}-2-oxo-3-pyrrolidinyl)-2-(5-chloro-2-thienyl)ethanesulfonamide formate], the Ki is less than 10 nM. Next, `C/C(=C\S(=O)(=O)NC1CCN(c2ccc(-n3ccnc3CN3CCC3)cc2F)C1=O)c1ccc(Cl)s1` (centres unmarked) [Example 1, (1E)-N-(1-{4-[2-(1-Azetidinylmethyl)-1H-imidazol-1-yl]-2-fluorophenyl}-2-oxo-3-pyrrolidinyl)-2-(5-chloro-thienyl)-1-propene-1-sulfonamide formate]: less than 10 nM.

For `COC1CN(Cc2nccn2-c2ccc(N3CCC(NS(=O)(=O)c4cc5ccc(Cl)cc5s4)C3=O)c(F)c2)C1` (centres unmarked) [Example 7, 6-Chloro-N-{1-[2-fluoro-4-(2-{[3-(methyloxy)-1-azetidinyl]methyl}-1H-imidazol-1-yl)phenyl]-2-oxo-3-pyrrolidinyl}-1-benzothiophene-2-sulfonamide formate], the Ki is less than 10 nM.

On to `O=C1C(NS(=O)(=O)c2cc3ccc(Cl)cc3s2)CCN1c1ccc(-n2ccnc2CN2CCC(F)C2)cc1F` (centres unmarked) [Example 6, 6-Chloro-N-[1-(2-fluoro-4-{2-[(3-fluoro-1-pyrrolidinyl)methyl]-1H-imidazol-1-yl}phenyl)-2-oxo-3-pyrrolidinyl]-1-benzothiophene-2-sulfonamide formate], for which the Ki was less than 10 nM. Next, `C/C(=C\S(=O)(=O)NC1CCN(c2ccc(-n3ccnc3CN3CCC(F)C3)cc2F)C1=O)c1ccc(Cl)s1` (centres unmarked) [Example 5, (1E)-2-(5-Chloro-2-thienyl)-N-[1-(2-fluoro-4-{2-[(3-fluoro-1-pyrrolidinyl)methyl]-1H-imidazol-1-yl}phenyl)-2-oxo-3-pyrrolidinyl]-1-propene-1-sulfonamide formate]: less than 10 nM.

The record behind these values is US7482374B2, “Pyrrolidine-2-ones as Factor Xa inhibitors” (Glaxo Group Limited, priority 2003, dated 2009).
